Measurements reported in paper PMC5040251, “The Structure of Treponema pallidum Tp0751 (Pallilysin) Reveals a Non-canonical Lipocalin Fold That Mediates Adhesion to Extracellular Matrix Components and Interactions with Host Cells” (PLoS Pathogens, 2016).
Ends that are not written are not given here.

Tests used:
[1] = molecular target: fibronectin; assay: Dose-dependent binding assay to immobilized fibronectin; settings: plate binding to immobilized human plasma fibronectin; peptides serially diluted 1:2 from 40 to 0.625; absorbance 600 nm, three wells, representative of two independent experiments; non-linear regression, GraphPad Prism; read-out: Apparent Kd (Fn)
Procedure: (§1) Fig 3 Tp0751 lipocalin derived peptides directly bind host proteins. (A) Thirteen overlapping Tp0751 synthetic 24-mer peptides were evaluated for binding to immobilized fibrinogen, fibronectin, collagen type I, and collagen type IV. Average absorbance readings (600 nm) from three wells are presented with bars indicating standard error and the results are representative of two independent experiments. […] Average absorbance readings (600 nm) from three wells are presented with bars indicating standard error and the results are representative of two independent experiments. […] The strand colored in cyan reflects the overlap of p10 and p11. Color coded sequences of peptides p4, p6, p10, p10scr1, and p10scr2 are shown. Arginine residues in the p10 peptides are indicated by underlining.
(§2) Plasminogen-depleted human fibrinogen (Calbiochem) was purchased from VWR International. Laminin isolated from Engelbreth-Holm-Swarm murine sarcoma basement membrane and fibronectin isolated from human plasma were purchased from Sigma-Aldrich Canada Ltd. (Oakville, ON). Human collagen types I and IV (Rockland Immunochemicals, Inc.) were purchased from VWR International.
(§3) To test for binding of synthetic Tp0751 peptides p1-p13, p1scr, p6scr, p10scr1, and p10scr2 to the host proteins fibrinogen, fibronectin, laminin, collagen type I, and collagen type IV, initial binding assays were performed as described previously. For dose-dependent binding assays, recombinant proteins were serially diluted 1:2 from either 10 μM to 0.156 μm (Tp0751_78A used for crystallization and Tp0751_78 WT) or 40 μm to 0.625 μm (peptides p4, p6, p10, p11, p10scr1, and p10scr2). Average absorbance readings (600 nm) from three wells are presented with bars indicating standard error and the results are representative of two independent experiments. Plates were read at 600 nm with a BioTek enzyme-linked immunosorbent assay plate reader (Fisher Scientific, Ottawa, ON). All statistical analyses were performed using the Student’s two-tailed t-test. Non-linear regression curves were fitted and apparent dissociation constants (K d) were calculated using GraphPad Prism data analysis software (San Diego, CA).

[2] = test system: HUVEC monolayers; assay: Peptide competitive inhibition assay: stationary adhesion of Tp0751-expressing B. burgdorferi (Bb-Tp0751) to HUVEC monolayers; format: cell-based, human; settings: for Effect on adhesion of Bb-Tp0751 to HUVEC monolayers: HUVECs on matrigel pre-incubated with 0.1 μg peptide per well for 3 h at 37°C, peptide removed, bacteria 12 h at 36°C, GFP bacteria counted in ten FOV, 400x, compared with scrambled peptide
Procedure: Fig 5 Tp0751 peptide 10 inhibits adhesion of Tp0751-expressing B. burgdorferi to HUVEC monolayers. (A) Schematic showing the experimental design of the competitive inhibition assay. Confluent HUVEC monolayers seeded on artificial basement membrane were preincubated with synthetic Tp0751 peptides (p4, p6, p10, p11, p4scr, p6scr, and p10scr1) to allow for peptide-endothelial cell interactions. HUVECs were then co-incubated with parent (negative control) or Tp0751-expressing B. burgdorferi strains to assess the competitive inhibition capacity of the synthetic Tp0751 peptides. After washing to remove non-adherent bacteria, B. burgdorferi adhesion to HUVECs was quantified using fluorescence microscopy to count the number of adherent bacteria per field of view (FOV) at 400x magnification. (B) Bar graph illustrating the number of adherent B. burgdorferi per FOV. Mean counts ± SEM from ten FOV for each biological replicate are presented with standard error bars. For statistical analyses, attachment by strain Bb-Tp0751 to HUVEC monolayers preincubated with peptides p4, p6, and p10 was compared to the attachment of strain Bb-Tp0751 in the presence of corresponding scrambled peptides, using the Student’s two-tailed t-test. […] The parent and Bb-Tp0751 strains are indicated by clear white bars and striped colored bars, respectively. […] Mean counts ± SEM from ten FOV for each biological replicate are presented with standard error bars. Statistical analysis, was performed using the Student’s two-tailed t-test.
Human umbilical vein endothelial cells (HUVECs) pooled from multiple donors and purchased from Lonza (Allendale, NJ) were cultured in endothelial growth medium-2 (EGM-2) (Lonza) at 37°C in an atmosphere of 5% CO2, as per manufacturer’s instructions. B. burgdorferi strains were cultivated at 36°C in an atmosphere of 1.5% CO2 in BSK-II medium prepared in-house with appropriate antibiotics (100 μg/mL gentamycin, 200 μg/mL kanamycin).
Stationary adhesion assays were adapted from Szczepanski and colleagues and Cameron and colleagues. HUVECs (passage 2–3) were seeded in 4-well chamber slides (Nalge Nunc International, Rochester, NY), coated with 500 μg/mL phenol red-free matrigel (Corning, Tewksbury, MA) and grown 20 h at 37°C in 5% CO2 to form confluent monolayers. Synthetic Tp0751 peptides (p4, p6, p10, p11, […], p4scr, p6scr, and p10scr1) were diluted to 500 μg/ml in HEPES buffered saline solution (Lonza) and HUVECs were pre-incubated with 0.1 μg of Tp0751 peptide per well for 3 h at 37°C in 5% CO2. Peptide solutions were removed from HUVECs prior to the addition of bacteria. Borrelia burgdorferi strains were cultured in biological triplicate, and two days prior to the experiment, B. burgdorferi cultures were passaged to 6x10^5 cells/ml and grown for 48 h to reach a concentration of 2x10^7 cells/ml. Borrelia burgdorferi cultures were then centrifuged and resuspended in a 3:1 mixture of BSK-II:EGM-2 and 1.4x10^7 cells of each biological replicate were added to HUVECs in duplicate wells. […] Quantitation of B. burgdorferi adhesion to HUVECs was performed by counting GFP-expressing bacteria in ten fields of view (FOV) from duplicate wells for each biological replicate under 400X magnification on a Nikon 80i fluorescence microscope (Meridian Instrument Company, Inc., Kent, WA) fitted with a monochrome digital camera, a dark-field condenser, and fluorescein filter (Excelitas Technologies, Mississauga, ON). […]

[3] = test system: collagen type I; assay: Initial (single point) binding screen of Tp0751 peptide library to immobilized collagen type I; settings: immobilized human collagen type I; absorbance 600 nm, three wells, two independent experiments; Student's two-tailed t-test against non-binding peptides
Procedure: as §1, §2, §3

Row | Sequence | Kd [1] [µM] | Effect on adhesion of Bb-Tp0751 to HUVEC monolayers [2] | Binding to collagen I in initial binding screen [3] | Peptide concentration giving statistically significant lower binding of Bb-Tp0751 to HUVEC monolayers compared with p8 ([2]; preincubation with 0-545 nM peptide, Student's two-tailed t-test, p≤0.005) [nM]
1 | HHHHHHGGAAQTHTQPPVQTAMRIALWNRA [p4] | 2.4 ± 0.1 | did not alter adhesion | statistically significant binding | –
2 | HHHHHHQGALQHLLAGLWIQTEISPNSGDI [p6] | 4.5 ± 0.9 | did not alter adhesion | statistically significant binding | –
3 | HHHHHHRKTVSFLTRNTAISSIRRRLEVTF [p10] | 1.6 ± 0.2 | significantly reduced binding | not to collagen I | ≥ 5.45
4 | HHHHHHSIRRRLEVTFESHEVIHVRAVEDV [p11] | 5.8 ± 0.3 | did not alter adhesion | statistically significant binding | –
